The values that follow come from patent US5225417A, “Opioid agonist compounds” (priority 1992, dated 1993).

One experiment has as its target μ opioid receptor (Rattus norvegicus, UniProt P33535). Kind of experiment: Opiate Binding Assay, μ receptor (3[H]-DAMGO displacement).
The next experiment concerns the target δ opioid receptor (Rattus norvegicus, UniProt P33533). The experiment is described as follows: Opiate Binding Assay, δ receptor (3[H]-DSLET displacement). Conditions: for Mean IC50 μ/δ Ratio: ratio of mean IC50 values for μ and δ opioid receptors.
The subject of a further experiment is mice. Kind of experiment: PBQ Writhing Assay. The format is in vivo, Charles River male albino mice. Conditions: for ED50: Mus musculus, 0.5 h. The source says:
The Writhing Assay is one of the most widely-used experimental procedures for measuring the analgesic activity of different narcotic and nonnarcotic analgesic agents, and involves the continuous, chemically-induced pain of visceral origin to an animal, such as a mouse or rat. [Gyires et al., Arch. int. Pharmacodyn, 267, 131-140 (1984); C. Vander Wende et al., Fed. Proc., 15, 494 (1956); Koster et al. Fed. Proc. 18 412 (1959); and Witken et al., J. Pharmacol. exp. Ther., 133, 400-408 (1961).] Chemicals which may be used to induce this pain include phenylbenzoquinone (PBQ) and acetic acid. As a result of the chemical irritation to the animal, a characteristic stretching and writhing of the animal (dorsiflexion of the animal's back, extension of its hindlimbs and the strong contraction of its abdominal musculature) will generally occur. […] Drugs which reduce the number of writhes of the animal appear to restore the normal nociceptive threshold of the animal.
Charles River male albino mice, weighing 20 to 30 grams were used in this assay.
Thirty minutes after subcutaneous or intragastric administration to ten mice of either 10 mg or 30 mg per kilogram of body weight of a compound of the present invention ("test compound"), […] of body weight of a 0.025% w/v solution of PBQ was injected intraperitoneally into each mouse. Ten mice which were given saline in place of a test compound of the invention were used as a control group.
Five minutes later, each mouse was individually placed into a glass beaker for observation, and the number of writhes occurring during the following ten-minute period was counted.
A test compound was considered to be "active" in this assay (to have produced analgesia in a mouse) if, after the administration of the compound to the mouse, the number of writhes elicited by a mouse injected with PBQ was equal to, or less than, one-half the median number of writhes recorded for the saline-treated control group of mice that day, as described by Taber in "Predictive Value of Analgesic Assays in Mice and Rats," Advances in Biochemical Psychopharmacology, 8, 191 (1974).
The standard initial screening doses of a test compound employed in this assay were 10 and/or 30 […] for both routes of administration.
Background: Writhing tests count abdominal constrictions after an irritant is injected.

The mark [1] stands for this setting: rat forebrain membranes, 3[H]-DAMGO 2.0 nM, 37° C., pH 7.4.
Where [2] appears, read: sc, subcutaneous, mice, 30 min before PBQ, read-out: PBQ writhing assay ED50, S.C.
Where [3] appears, read: read-out: Mean IC50 Value, δ, rat forebrain membranes, 3[H]-DSLET 1.0 nM, 37° C., pH 7.4.

Structures can show the parent of a compound that is named as a salt. Where two headings read alike, the source gives them in different places.

μ opioid receptor, sequence (P33535 whole entry): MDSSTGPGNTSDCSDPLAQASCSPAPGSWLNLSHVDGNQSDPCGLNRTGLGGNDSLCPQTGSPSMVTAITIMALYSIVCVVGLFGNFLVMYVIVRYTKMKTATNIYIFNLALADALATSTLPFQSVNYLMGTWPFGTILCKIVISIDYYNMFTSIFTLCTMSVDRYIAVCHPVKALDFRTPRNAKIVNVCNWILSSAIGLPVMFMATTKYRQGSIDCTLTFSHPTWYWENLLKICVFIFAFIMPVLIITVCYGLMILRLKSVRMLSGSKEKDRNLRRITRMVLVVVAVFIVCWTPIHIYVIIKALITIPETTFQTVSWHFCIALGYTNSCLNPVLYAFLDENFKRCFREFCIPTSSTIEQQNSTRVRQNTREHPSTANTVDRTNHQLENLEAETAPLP
δ opioid receptor, sequence (P33533 whole entry): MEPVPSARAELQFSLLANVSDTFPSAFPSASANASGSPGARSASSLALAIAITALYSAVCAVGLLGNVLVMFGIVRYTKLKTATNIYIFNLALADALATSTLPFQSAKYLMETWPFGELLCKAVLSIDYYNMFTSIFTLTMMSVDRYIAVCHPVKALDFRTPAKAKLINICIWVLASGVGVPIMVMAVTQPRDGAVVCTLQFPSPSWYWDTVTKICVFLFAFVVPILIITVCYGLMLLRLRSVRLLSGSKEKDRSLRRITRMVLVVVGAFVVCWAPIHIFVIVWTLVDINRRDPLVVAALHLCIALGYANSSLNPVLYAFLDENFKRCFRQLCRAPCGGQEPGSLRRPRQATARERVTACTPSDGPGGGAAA

Broadly, the IC50 is the midpoint of a concentration-inhibition curve. Consider `CCOC(=O)CN1CC[C@]23c4c5ccc(O)c4O[C@H]2c2oc4ccccc4c2C[C@@]3(O)[C@H]1C5` (relative stereo) [Example IV, Ethyl 5,6,8,8a,9,14bβ-hexahydro-1,8aβ-dihydroxy-4,8(R,α)-methano-4bS*-7H-bisbenzofuro [3,2-e:2',3'-g]isoquinoline-7-acetate, hydrochloride], for which the IC50 on μ opioid receptor is over 10000 nM. Also, at δ opioid receptor, the concentration for half-maximal inhibition (IC50) was determined as 11.8 nM and the “Mean IC50 μ/δ Ratio” value is over 850.

Regarding `OCc1ccc(CN2CC[C@]34c5c6ccc(O)c5O[C@H]3c3oc5ccccc5c3C[C@@]4(O)[C@H]2C6)o1` (relative stereo) [Example XIII, 5,6,7,8,14,14bβ-Hexahydro-7-[[5-(hydroxymethyl)-2-furanyl]methyl]-4,8(R,α)-methano-4b S*-benzofuro[2,3-a]pyrido[4,3-b]carbazole-1,8aβ(9H)-diol, monohydrochloride], the “Mean IC50 Value, μ” value at μ opioid receptor (setting [1]) was “inactive”. On δ opioid receptor, this molecule showed an IC50 of about 100 nM.

Turning to `CN1CC[C@]23c4c5ccc(O)c4O[C@H]2c2[nH]c4c(I)cccc4c2C[C@@]3(O)[C@H]1C5` (relative stereo) [Example XII, 5,6,7,8,14,14bβ-Hexahydro-13-iodo-7-methyl-4,8 (R,α)-methano-4bS*-benzofuro[2,3-a]pyrido[4,3-b]carbazole-1,8aβ(9H)-diol, monohydrochloride], the half-maximal inhibitory concentration (IC50) on μ opioid receptor stood at 101 nM. Besides, on δ opioid receptor, the IC50 was 9.5 nM and the “Mean IC50 μ/δ Ratio” value is on record as 10.6.

As to `CN1CC[C@]23c4c5ccc(O)c4O[C@H]2c2oc4ccccc4c2C[C@@]3(OCc2ccccc2)[C@H]1C5` (relative stereo) [Example X, 6,7,8,8a,9,14bβ-hexahydro-7-methyl-8aβ-(phenylmethoxy)-4,8(R,α)-methano-4bS*-5H-bisbenzofuro[3,2-e:2',3'-g]isoquinolin-1-ol, monohydrochloride], the IC50 at μ opioid receptor came to 356 nM. Also, on δ opioid receptor, the IC50 is 8 nM and the “Mean IC50 μ/δ Ratio” value is listed as 44.

Molecule `CC(C)=CCN1CC[C@]23c4c5ccc(O)c4O[C@H]2c2oc4ccccc4c2C[C@@]3(O)[C@H]1C5` (relative stereo) [Example III, 6,7,8,14bβ-tetrahydro-7-(3-methyl-2-butenyl)-4,8 (R,α)-methano-4bS*-5H-bisbenzofuro[3,2-e:2',3'-g]isoquinoline-1,aβ(9H)-diol, monohydrochloride] had a half-inhibitory concentration (IC50) at μ opioid receptor of 4670 nM. Also, on δ opioid receptor, the IC50 amounted to 51.1 nM and the “Mean IC50 μ/δ Ratio” value worked out at 91.

Usually ED50 stands for the dose that gives a 50% effect, or the effect in half of the subjects. In the case of `CN1CC[C@]23c4c5ccc(O)c4O[C@H]2c2[nH]c4ccc(C(=O)O)cc4c2C[C@@]3(O)[C@H]1C5` (relative stereo) [Example V, 5,6,7,8,8a,9,14,14bβ-Octahydro-1,8aβ-dihydroxy-7-methyl-4,8(R,α)-methano-4bS*-benzofuro [2,3-a]pyrido [4,3-b]carbazole-11-carboxylic acid, monohydrochloride], the 50% effective dose (ED50) in the experiment with mice (po, intragastric, mice, 30 min before PBQ, read-out: PBQ writhing assay ED50, I.G.) is 3.4 mg/kg; in the experiment on mice (setting [2]) it was 1.3 mg/kg. For the same molecule, the 50% inhibitory concentration (IC50) on μ opioid receptor is 810 nM; at δ opioid receptor it was 660 nM. Also, the “Mean IC50 μ/δ Ratio” value on δ opioid receptor was 1.2.

For the molecule `Oc1ccc2c3c1O[C@H]1c4oc5ccccc5c4C[C@@]4(O)[C@@H](C2)N(Cc2ccccc2)CC[C@]314` (relative stereo) [Example XVI, 6,7,8,14bβ-Tetrahydro-7-(2-phenylmethyl)-4,8 (R,α)-methano-4bS*-5H-bisbenzofuro [3,2-e:2',3'-g]isoquinoline-1,8aβ(9H)-diol], at μ opioid receptor (setting [1]), the “Mean IC50 Value, μ” value was “inactive”. Moreover, the inhibition at 0.05 µM on δ opioid receptor (read-out: Percent Displacement, δ at 50 nM) worked out at 50%.

For the molecule `CC(=O)Oc1ccc2c3c1O[C@H]1c4oc5ccccc5c4C[C@@]4(OC(C)=O)[C@@H](C2)N(C#N)CC[C@]314` (relative stereo) [Example I, 1,8aβ-Bis(acetyloxy)-5,6,8,8a,9,14bβ-hexahydro-4,8(R,α)-methano-4bS*-7H-bisbenzofuro [3,2-e:2',3'-g]isoquinoline-7-carbonitrile], in the experiment with mice (setting [2]), the ED50 was found to be 2.4 mg/kg. The “PBQ writhing assay ED50, I.G.” value in the experiment on mice (intragastric, mice, 30 min before PBQ) is “inactive”. For the same molecule, the inhibition at 0.1 µM on δ opioid receptor (read-out: Percent Displacement, δ at 100 nM) amounted to 14%.

As for `CCOC(=O)c1ccc2[nH]c3c(c2c1)C[C@@]1(O)[C@H]2Cc4ccc(O)c5c4[C@@]1(CCN2C)[C@H]3O5` (relative stereo) [Example VI, Ethyl 5,6,7,8,8a,9,14,14bβ-Octahydro1,8αP-dihydroxy-7-methyl-4,8(R,α)methano-4bS*-benzofuro [2,3-a]pyrido[4,3-b]carbazole-11-carboxylate, monohydrochloride], the IC50 came out at 248 nM on μ opioid receptor (read-out: Mean IC50 Value, μ, rat forebrain membranes, 3[H]-DAMGO 2.0 nM, 37° C., pH 7.4) and 65 nM on δ opioid receptor (setting [3]). For the same molecule, the “Mean IC50 μ/δ Ratio” value at δ opioid receptor is given as 3.8.

`Oc1ccc2c3c1O[C@H]1c4oc5ccccc5c4C[C@@]4(O)[C@@H](C2)N(CCc2ccccc2)CC[C@]314` (relative stereo) [Example VII, 6,7,8,14bβ-tetrahydro-7-(2-phenylethyl)-4,8(R,α)-methano-4bS*-5H-bisbenzofuro [3,2-e:2',3'-g]isoquinoline-1,8aβ(9H)-diol, hydrochloride]: the inhibition at 1 µM on μ opioid receptor (read-out: Percent Displacement, μ at 1 μM) came out at 35%. This molecule displayed an IC50 at δ opioid receptor of 34.5 nM.

Regarding `Oc1ccc2c3c1O[C@H]1c4oc5ccccc5c4C[C@@]4(O)[C@@H](C2)NCC[C@]314` (relative stereo) [Example II, 6,7,8,14bβ-Tetrahydro-4,8(R,α)-methano-4bS*-5H-bisbenzofuro[3,2-e:2',3'-g]isoquinoline-1,8aβ(9H)-diol], the “Number of mice in 10 exhibiting inhibition of writhing, I.G.” value with mice (intragastric, dose not stated in table (screening doses 10 and/or 30 mpk)) is recorded as 4/10. For the same molecule, in the experiment on mice (subcutaneous, dose not stated in table (screening doses 10 and/or 30 mpk)), the “Number of mice in 10 exhibiting inhibition of writhing, S.C.” value is listed as 4/10. The figures for the concentration for half-maximal inhibition (IC50) at μ opioid receptor and at δ opioid receptor were 291 nM and 6.5 nM, respectively. Moreover, the “Percent Displacement, μ” value at μ opioid receptor (μ receptor, 3[H]-DAMGO 2.0 nM, test concentration not given) is 2. In addition, the “Mean IC50 μ/δ Ratio” value at δ opioid receptor is recorded as 45.

In the case of `O=C(O)CN1CC[C@]23c4c5ccc(O)c4O[C@H]2c2oc4ccccc4c2C[C@@]3(O)[C@H]1C5` (relative stereo) [Example VIII, 5,6,8,8a,9,14bβ-Hexahydro-1,8aβ-dihydroxy-4,8 (R,α)-methano-4bS*-7H-bisbenzofuro[3,2-e:2',3'-g]isoquinoline-7-acetic acid, hydrochloride], at μ opioid receptor, the half-maximal inhibitory concentration (IC50) is 4000 nM. In addition, at δ opioid receptor, the IC50 was 160 nM and the “Mean IC50 μ/δ Ratio” value was determined as 25.

“7-(3-Furanylmethyl)-5,6,7,8,14,14bβ-hexahydro-4,8(R,α)-methano-4bS*-benzofuro[2,3-a]pyrido [4,3-b]carbazole-1,8aβ(9H)-diol, hydrochloride [Example XIV]”: on μ opioid receptor (setting [1]), the “Mean IC50 Value, μ” value is “inactive”. The concentration for half-maximal inhibition (IC50) at δ opioid receptor (setting [3]) came to 31.8 nM.
